Measurements reported in ChEMBL document CHEMBL1135375, “Synthesis and biological activities of YkFA analogues: effects of position 4 substitutions and altered ring size on in vitro opioid activity” (Bioorg Med Chem Lett, 2002).

How the values were obtained:
Mu-type opioid receptor = Mu-type opioid receptor (Cavia porcellus, UniProt P97266); test: Concentration required for 50% inhibition of electrically induced contraction of the guinea pig ileum mediated through mu opioid receptor; format: functional, tissue-based
[1] = target: Delta-type opioid receptor (Mus musculus, UniProt P32300); test: Concentration required for 50% inhibition of electrically induced contraction of the mouse vas deferens mediated through delta opioid receptor; format: functional
[2] = tested on: Opioid receptors; mu & delta; test: Selectivity ratio against mu opioid receptor to that of delta opioid receptor was determined

Mu-type opioid receptor, sequence (P97266 whole entry): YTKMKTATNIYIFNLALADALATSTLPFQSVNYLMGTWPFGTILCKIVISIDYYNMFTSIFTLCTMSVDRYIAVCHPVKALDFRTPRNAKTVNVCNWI
Delta-type opioid receptor, sequence (P32300 whole entry): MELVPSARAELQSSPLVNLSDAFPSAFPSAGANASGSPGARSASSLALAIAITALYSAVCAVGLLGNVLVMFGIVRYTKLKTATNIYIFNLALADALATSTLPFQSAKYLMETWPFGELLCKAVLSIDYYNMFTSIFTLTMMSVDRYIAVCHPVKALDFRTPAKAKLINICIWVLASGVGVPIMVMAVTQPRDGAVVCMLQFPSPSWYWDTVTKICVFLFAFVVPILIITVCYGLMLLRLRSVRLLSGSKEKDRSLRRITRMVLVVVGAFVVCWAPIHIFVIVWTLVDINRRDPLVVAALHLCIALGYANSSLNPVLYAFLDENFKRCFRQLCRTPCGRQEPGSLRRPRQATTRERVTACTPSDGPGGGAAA

SMILES | IC50 (Mu-type opioid receptor) [nM] | IC50 [1] [nM] | Ratio [2]
NCCCC[C@@H]1C(=O)N[C@@H](Cc2ccccc2)C(=O)N[C@@H](CC(=O)O)C(=O)N1C(=O)[C@@H](N)Cc1ccc(O)cc1 | 78.8 | 73.8 | –
NCCCC[C@H]1C(=O)N[C@@H](Cc2ccccc2)C(=O)N[C@H](CC(=O)O)C(=O)N1C(=O)[C@@H](N)Cc1ccc(O)cc1 | – | – | 0.94
C[C@H]1NC(=O)[C@H](Cc2ccccc2)NC(=O)[C@H](CCCCN)N(C(=O)[C@@H](N)Cc2ccc(O)cc2)C1=O | – | – | 4.9
CC[C@@H](C)[C@H]1NC(=O)[C@H](Cc2ccccc2)NC(=O)[C@H](CCCCN)N(C(=O)[C@@H](N)Cc2ccc(O)cc2)C1=O | – | – | 6
C[C@@H]1NC(=O)[C@H](Cc2ccccc2)NC(=O)[C@@H](CCCCN)N(C(=O)[C@@H](N)Cc2ccc(O)cc2)C1=O | 0.11 | 0.54 | –
CC(C)[C@@H]1NC(=O)[C@H](Cc2ccccc2)NC(=O)[C@@H](CCCCN)N(C(=O)[C@@H](N)Cc2ccc(O)cc2)C1=O | 0.2 | 0.44 | –
C[C@H]1NC[C@H](Cc2ccccc2)NC(=O)[C@H](CCN)N(C(=O)[C@@H](N)Cc2ccc(O)cc2)C1=O | 21.4 | 252 | 12
C[C@@H]1NC(=O)[C@H](Cc2ccccc2)NC(=O)[C@@H](CCN)N(C(=O)[C@@H](N)Cc2ccc(O)cc2)C1=O | 3.5 | 40 | –
CC[C@H](C)[C@@H]1NC(=O)[C@H](Cc2ccccc2)NC(=O)[C@@H](CCCCN)N(C(=O)[C@@H](N)Cc2ccc(O)cc2)C1=O | 1.1 | 6.3 | –
CC(C)[C@H]1NC(=O)[C@H](Cc2ccccc2)NC(=O)[C@H](CCCCN)N(C(=O)[C@@H](N)Cc2ccc(O)cc2)C1=O | – | – | 2.2
C[C@H]1NC(=O)[C@H](Cc2ccccc2)NC(=O)[C@H](CCN)N(C(=O)[C@@H](N)Cc2ccc(O)cc2)C1=O | – | – | 12
CC(C)C[C@H]1NC(=O)[C@H](Cc2ccccc2)NC(=O)[C@H](CCCCN)N(C(=O)[C@@H](N)Cc2ccc(O)cc2)C1=O | – | – | 4.5
CC(C)C[C@@H]1NC(=O)[C@H](Cc2ccccc2)NC(=O)[C@@H](CCCCN)N(C(=O)[C@@H](N)Cc2ccc(O)cc2)C1=O | 1.4 | 6.2 | –
